The results in this text go back to patent US10106627B2, “Process for the preparation of polymeric biosurfactants” (priority 2014, dated 2018).

Series [1] relates to intracellular reactive oxygen species (ROS) in RAW 264.7 macrophages. As to the kind of experiment: LPS-induced intracellular ROS (DCFH-DA) in RAW 264.7 macrophages. It is filed as cell-based, mouse. To be noted: 20 μg ml^−1; LPS 100 ng/ml 24 h; LPS alone 78.97%.
Experimental: The inhibition of intracellular reactive oxygen species (ROS) by Brevisan, Microsan and M-EPS-Au-NP in RAW 264.7 macrophages was measured using the oxygen free radical acceptor 2,7,-dichlorofluorescein diacetate (DCFH-DA) [Wang, H., and Joseph J. A. (1999) Free. […] The RAW-264.7 macrophages (2×10^6 cells/well in 24-well plate) were treated with Brevisan, Microsan and M-EPS-Au-NP at various concentrations and then stimulated with 100 ng/ml LPS for 24 h using N-acetylcysteine (NAC, 10 mM) as a ROS inhibitor. The DCF formed by intracellular ROS was measured at 485 nm excitation and 520 nm emission wavelengths using a Hitachi spectrofluorimeter. The experiments were run in triplicates and reported as the percentage of intracellular ROS formed.
A short description of series [2]: Superoxide anion scavenging (PMS/NADH method). It is filed as biochemical. The conditions noted are these: cell free. The protocol: (§1) The antioxidant activity of Microsan from Microbacterium sp. strain BS-2 and Brevisan from Brevibacillus sp. strain BS-207 in cell free system was measured by its inhibitory activity on the generation of DPPH free radicals, superoxide anions (O^2−), lipid peroxidation and erythrocyte hemolysis. The DPPH free radical scavenging assay was performed using 2,2-diphenyl-1-picrylhydrazyl (DPPH) free radical scavenging method [Ara. N. and Hasan, N. (2009) Res. J. Med. Medical Sci. 4, 107-110]. Different concentrations of Microsan and Brevisan were mixed individually with 150 μl of 160 μM methanolic solution of DPPH and incubated at 35° C. for 30 min in dark. The effective concentration (EC50) was calculated by measuring the absorbance of the samples at 517 nm. The superoxide anion scavenging was measured using phenazine methosulfate-nicotinamide adenine dinucleotide (PMS/NADH) method as previously described [Liu, F., Ooi, V. E. and Chang, S. T. (1997) Life Sci. 60, 763-771]. The lipid peroxidation assay was performed using the previously described method [Zhang, Q., Yu, P., Li, Z., Zhang, H., Xu, Z. and Li, P. (2003) J. Appl. Phycol. 15, 305-310] which is based on measuring the lipid peroxide decomposed product malondialdehyde (MDA). […] Samples were incubated at 37° C. for 30 min and the absorbance was measured at 540 nm. […]

Series [3] in a line: Surface tension, Wilhelmy plate method. It is filed as physicochemical. To be noted: from 72. How it is done:
The bacterial strains producing biosurfactants were isolated from the petroleum-contaminated soil sample collected from Mupkal, Nizamabad, Andhra Pradesh, India (latitude 18.90° N and longitude 78.36° E). The soil sample was enriched by placing 1.0 g of soil sample in 100 ml of mineral salts medium supplemented with N-hexadecane (1%, v/v) as a sole carbon source for three weeks. The enriched sample was serially diluted and then plated on the mineral salts agar plates overlaid with N-hexadecane which acted as a sole carbon source. The colonies that appeared on the plates upon incubation at 37° C. for 72 h were purified for 2-3 times on nutrient agar plates. The isolated pure microorganisms were cultured in liquid mineral salts medium at 37° C. for 72 h. The cells were separated by centrifugation and the cell-free supernatant was measured for the reduction in surface tension values by Wilhelmy plate method using a Du-Nouy K100MK2 Processor Tensiometer (Krüss, Hamburg, Germany). The concentration series was generated automatically with a computer-controlled Dosimat (Metrohm AG, Switzerland). […] The critical micelle concentration (CMC) was measured by plotting the concentration of surfactant as a function of surface tension, and the CMC was taken as the point where the slope of the curve abruptly changed. […]

Series [4] can be described thus: Lipid peroxidation assay (malondialdehyde). It is filed as biochemical. To be noted: cell free. The protocol: as §1
Series [5] has as its system cyclooxygenase-2 (COX-2) in RAW 264.7 cells. In words: LPS-induced COX-2 immunoblot in RAW 264.7 cells. It is filed as cell-based, mouse. To be noted: 10 and 50 μg ml^−1, 24 h, LPS 100 ng ml^−1. In general terms: Immunoblotting shows a protein as a band on a membrane.
Experimental: In independent experiments, RAW-264.7 cells were treated with Brevisan, Microsan and M-EPS-Au-NP (10 and 50 μg ml^−1 each) and then stimulated with 100 ng ml^−1 of LPS. After 24 h, the cells were washed with PBS and suspended in a lysis buffer containing 20 mM Tris, I mM EDTA, 150 mM NaCl, 1% NP-40, 0.5% sodium deoxycholate, 1 mM β-glycerophosphate, 1 mM sodium orthovanadate, 1 mM PMSF, 10 mg ml^−1 leupeptin, 20 mg ml^−1 aprotinin. The mixture was centrifuged at 10,000 rpm at 4° C. for 10 min to obtain the cell lysate. The protein content was determined by Bradford method [Bradford, M. M. (1976) Anal. Biochem. 72, 248-258]. An equal amount of total cell lysate was resolved on 12% SDS-PAGE gels and then transferred onto nitrocellulose membranes. Membranes were blocked with 5% w/v non-fat dry milk and then incubated with the primary antibodies for mouse COX-2 and β-actin with gentle shaking at 4° C. for 12 h and then incubated with peroxidase-conjugated secondary antibodies. The blots were developed using peroxidase substrates, TMB (3,3,5,5-tetramethylbenzidine)/H2O2.

In the case of “β-D-glucuronyl-(1-2)-D-mannosyl-(1-4)-D-glucose [Microsan]”, the “LPS-induced ROS levels after treatment” value in series [1] amounted to 55.71%. In series [2], the “EC50 superoxide anions (O^2−) scavenging” value was 24.48 µg/mL. In series [3], the “surface tension of water reduced to” value worked out at 31.2 mN m^−1. In addition, the “EC50 lipid peroxidation inhibition” value in series [4] is 165.94 µg/mL. In addition, the “induction of COX-2 (Western blot)” value in series [5] is listed as “significantly inhibited”.
